Consider ten compounds from publication PMC5618561 (International Journal of Molecular Sciences, 2017).

Like-named read-outs stand apart in the source and are kept apart here.

For data set [1], the system named is pyruvate oxidation of isolated rat liver mitochondria. The data set can be described thus: ADP-stimulated pyruvate oxidation of isolated rat liver mitochondria (high-resolution respirometry). It counts as biochemical.
Data set [2] deals with 2-oxoglutarate oxidation of isolated rat liver mitochondria. The data set can be described thus: ADP-stimulated 2-oxoglutarate oxidation of rat liver mitochondria. The class given is biochemical. The note with it: 3 min preincubation with 1 mM ATP, 5 mM MgCl2, 10 mM 2-oxoglutarate, 1 mM ADP, read-out: Apparent IC50 of inhibition of 2-oxoglutarate oxidation.
In data set [3] the target is T1, α-lipoamide dehydrogenase (Rattus norvegicus, UniProt Q6P6R2).
T1 construct: After 3 min incubation of rat liver mitochondria (0.3 mg protein/mL) in MTP medium; from tissue; host or cells: liver mitochondria of Wistar rat
T1 sequence (Q6P6R2 36-509): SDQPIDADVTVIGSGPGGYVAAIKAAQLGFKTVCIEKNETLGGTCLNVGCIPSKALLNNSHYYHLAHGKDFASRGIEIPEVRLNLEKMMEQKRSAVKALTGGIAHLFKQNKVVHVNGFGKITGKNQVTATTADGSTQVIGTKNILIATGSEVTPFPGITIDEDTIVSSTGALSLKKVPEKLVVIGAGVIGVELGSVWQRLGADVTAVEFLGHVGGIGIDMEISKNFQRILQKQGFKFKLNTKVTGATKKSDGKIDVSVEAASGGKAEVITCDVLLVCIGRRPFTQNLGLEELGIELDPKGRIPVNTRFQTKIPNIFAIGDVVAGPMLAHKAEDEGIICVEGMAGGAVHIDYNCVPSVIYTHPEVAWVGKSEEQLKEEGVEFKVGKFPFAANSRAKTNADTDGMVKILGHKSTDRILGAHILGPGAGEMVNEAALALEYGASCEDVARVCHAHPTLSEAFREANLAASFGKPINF
The data set is described as follows: α-lipoamide dehydrogenase activity in intact mitochondria (re-reduction of NAD(P)+ after α-lipoamide, NAD(P)H fluorescence). The class given is biochemical. To be noted: for IC50: read-out: Apparent IC50 of inhibition of α-lipoamide dehydrogenase; for inhibition of α-lipoamide dehydrogenase (in words): rat liver mitochondria, abstract summary.

Data set [4] concerns glutamate oxidation of isolated rat liver mitochondria. The data set can be described thus: ADP-stimulated glutamate (+ malate) oxidation of rat liver mitochondria. It counts as biochemical. The note with it: 3 min preincubation with 1 mM ATP, 5 mM MgCl2, 10 mM glutamate, 5 mM malate, 1 mM ADP, read-out: Apparent IC50 of inhibition of glutamate oxidation.
For data set [5] the following is noted: cited from earlier work.
The test system of the next data set is SWV/Finn mice. To be noted: cited from earlier work.
Data set [6] relates to pyruvate transport of rat liver mitochondria. The data set is described as follows: pyruvate transport: pyruvate-dependent swelling of mitochondria in ammonium pyruvate. It counts as biochemical. To be noted: 1 mM compound; rat liver mitochondria in 0.1 M ammonium pyruvate. How it is done: (§1) (A) The plotted pyruvate dehydrogenase (PDH) activities are averages of three independent experiments; (B) Swelling of mitochondria in 0.1 M ammonium pyruvate buffer. One representative experiment (out of 3) is shown. […] Experimental conditions as described in Materials and Methods.
For pyruvate transport determinations, the mitochondrial suspension (0.6–0.7 mg protein) was placed into a 3 mL spectrophotometric cuvette, containing 5 mM MgCl2, 2 µM rotenone, 1.5 µg/mL antimycin, and 0.1 M ammonium pyruvate (obtained from ammonium hydroxide and pyruvic acid). When indicated, 1 mM cinnamate was added. Mitochondrial swelling was estimated at 30 °C using a spectrophotometer (Aminco DW 2000, SLM Instruments) at 546 nm.

The conditions of data set [7]: patients with epilepsy; cited from earlier work.
For another data set, the target named is T2, pyruvate dehydrogenase (Rattus norvegicus, UniProt P26284+P49432).
T2 construct: the mitochondrial suspension (0.3 mg protein) was placed into a 0.5 mL spectrophotometric cuvette; from tissue; host or cells: liver mitochondria of Wistar rat, solubilised with 0.1% N-dodecyl-β-D-maltoside
T2 sequence (P26284 30-390): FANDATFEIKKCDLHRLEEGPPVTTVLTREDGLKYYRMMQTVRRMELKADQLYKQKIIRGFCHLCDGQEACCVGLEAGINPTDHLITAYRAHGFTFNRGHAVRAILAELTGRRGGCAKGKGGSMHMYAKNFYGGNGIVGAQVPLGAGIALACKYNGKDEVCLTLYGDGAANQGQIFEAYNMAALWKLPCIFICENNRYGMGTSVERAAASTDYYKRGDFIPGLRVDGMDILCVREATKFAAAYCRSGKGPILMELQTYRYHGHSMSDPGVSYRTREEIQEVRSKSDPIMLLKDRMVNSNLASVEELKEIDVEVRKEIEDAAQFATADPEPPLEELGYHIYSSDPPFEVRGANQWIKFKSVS
T2 sequence (P49432 31-359): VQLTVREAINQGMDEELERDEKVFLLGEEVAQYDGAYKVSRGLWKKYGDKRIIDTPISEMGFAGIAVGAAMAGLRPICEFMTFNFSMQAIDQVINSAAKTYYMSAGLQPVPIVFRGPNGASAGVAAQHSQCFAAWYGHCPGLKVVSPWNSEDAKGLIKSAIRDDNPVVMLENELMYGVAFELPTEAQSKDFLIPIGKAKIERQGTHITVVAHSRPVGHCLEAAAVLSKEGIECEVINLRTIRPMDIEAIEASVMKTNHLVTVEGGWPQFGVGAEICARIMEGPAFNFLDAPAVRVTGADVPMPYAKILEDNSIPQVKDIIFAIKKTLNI
The data set is described as follows: pyruvate dehydrogenase (PDH) activity of isolated rat liver mitochondria. The class given is biochemical. The note with it: preincubation with 10 mM VPA and 1 mM ATP; excess α-lipoamide dehydrogenase. The method, then: as §1
PDH activity in this suspension was determined according to Scislowski and Davis with the following modifications: the mitochondrial suspension (0.3 mg protein) was placed into a 0.5 mL spectrophotometric cuvette, containing 0.1 M potassium phosphate buffer (pH 7.4), 5 mM MgCl2, 3 mM NAD^+, 0.1 mM CoASH, 2 mM dithiothreitol, 0.1% N-dodecyl-β-D-maltoside, 0.4 mM thiamine pyrophosphate, 20 µg/mL diaphorase (Boehringer Mannheim, Mannheim, Germany), and 10 mM pyruvate. PDH activity was measured at 30 °C using a spectrophotometer (Aminco DW 2000, SLM Instruments, Urbana, IL, USA) with 340–380 nm dual wavelength photometry.

Data set [8] concerns pilocarpine-induced status epilepticus (SE). To be noted: cited from earlier work; for protection against pilocarpine-induced status epilepticus: rat.
The next data set relates to epilepsy model. The note with it: racemate; dependent on the epilepsy model; cited from earlier work.
[9] abbreviates: isolated rat liver mitochondria, 3 min preincubation with drug, 1 mM ATP, 5 mM MgCl2, 10 mM pyruvate, 5 mM malate, ADP, read-out: Apparent IC50 of inhibition of pyruvate oxidation.
The mark [10] stands for this setting: isolated rat liver mitochondria, pyruvate-dependent reduction of NAD(P)+, estimated value.
Setting [11] is: SWV/Finn mice, strain highly susceptible to VPA-induced teratogenicity.

As usually defined, the IC50 is the concentration needed to halve the response being measured.

As for `CCCC(CCC)C(N)=O` [VPD, Valpromide], the IC50 is 5000 µM in [1] (setting [9]), 8000 µM in data set [2], over 1000 µM in data set [3] (setting [10]) and 3000 µM in [4]. Also, the “inhibition of α-lipoamide dehydrogenase (in words)” value (from here on “inhibition … (in words)”) in data set [3] was “only small effects”. In [5] (humans), the “biotransformation to the corresponding acid” value was “rapid transformation to VPA”.

Take `CCCC(C(N)=O)C(C)CC` (stereo not drawn) [SPD, sec-Butylpropylacetamide]: the half-inhibitory concentration (IC50) in data set [1] (setting [9]) is 3000 µM; in data set [2] it was 1000 µM; in data set [3] ([…], pyruvate-dependent reduction of NAD(P)+, estimated value), over 1000 µM; in data set [4], 2000 µM. For the same compound, the “inhibition … (in words)” value in data set [3] is given as “only small effects”.

In the case of `CC[C@H](C(N)=O)[C@@H](C)CC` [(2S,3S)-VCD], the teratogenic effects result in the data set with SWV/Finn mice (setting [11]) is recorded as “did not show any significant teratogenic effects”.

In the case of `CCCC(CCC)C(=O)O` [VPA, Valproic acid], the “effect on pyruvate-dependent swelling velocity (pyruvate transport)” value in data set [6] is reported as “no effect”. Besides, the IC50 in data set [1] (isolated rat liver mitochondria, 3 min preincubation with drug, 1 mM ATP, 5 mM MgCl2, 10 mM pyruvate, 5 mM malate, ADP, listed as valproic acid, read-out: Apparent IC50 of inhibition of pyruvate oxidation) was about 50 µM; in [1] (setting [9]), 50 µM; in data set [2] it was 50 µM; in [3] (isolated rat liver mitochondria, pyruvate-dependent reduction of NAD(P)+ after 75 µM α-lipoamide, preincubation with 1 mM ATP) it was 80 µM; in [4], 10000 µM. For the same compound, the therapeutic blood levels in data set [7] is 40 to 100 mg/L. For the same compound, the “pyruvate-dependent re-reduction of NAD(P)+ after α-lipoamide” value in data set [3] (0.5 and 1 mM VPA) is “strongly inhibited”. Besides, in data set [3] (glutamate as substrate), the “glutamate-dependent re-reduction of NAD(P)+ after α-lipoamide” value is given as “no effects”. In addition, in data set [3], the “inhibition … (in words)” value is on record as “strongly inhibited”. Besides, at pyruvate dehydrogenase, the “effect on pyruvate dehydrogenation velocity (PDH activity)” value is recorded as “slight increase”.

`O=[As][O-].[Na+]` [arsenite]: the “inhibition of DLDH activity” value in data set [3] is given as “complete inhibition”.

As for Valnoctic acid [VCA], the IC50 in data set [1] (both substrates summarised together, preincubated in the presence of ATP, read-out: IC50 of inhibition of pyruvate and 2-oxoglutarate oxidation rates of liver mitochondria) was 200 to 900 µM; in data set [1] (setting [9]), 900 µM; in data set [2] it was 200 µM; in data set [3] it was 300 µM; in [4] it was 2000 µM. Further, the teratogenic effects result in the data set with SWV/Finn mice (mouse, in vivo) is on record as “did not show any significant teratogenic effects”.

`CCCC(C(=O)O)C(C)CC` (stereo not drawn) [SPA, sec-Butylpropylacetic acid]: the IC50 in [1] (setting [9]) was 50 µM; in data set [2], 50 µM; in data set [3] ([…], pyruvate-dependent reduction of NAD(P)+ after 75 µM α-lipoamide, preincubation with 1 mM ATP), 100 µM; in [4], 2000 µM. For the same compound, the “inhibition … (in words)” value in data set [3] is on record as “Strong inhibition”.

Take `CC[C@H](C)[C@@H](CC)C(N)=O` [(2R,3S)-VCD]: in the data set on SWV/Finn mice (setting [11]), the teratogenic effects result is “did not show any significant teratogenic effects”.

As to `O=C(O)/C=C/c1ccccc1` [cinnamate], in [6], the “effect on pyruvate-dependent swelling velocity (pyruvate transport)” value is given as “clearly inhibited”.

`CCC(C)C(CC)C(N)=O` (stereo not drawn) [VCD, Valnoctamide]: the IC50 in data set [3] (setting [10]) is over 1000 µM. The “inhibition … (in words)” value in data set [3] was “only small effects”. Moreover, the “block of pilocarpine-induced electrographic SE” value in [8] (180 mg/kg) is “did block”. In addition, the entries for the “protection against pilocarpine-induced status epilepticus” value in data set [8] (65 mg/kg intraperitoneally at seizure onset) and in [8] (80 mg/kg 30 min after seizure onset) were “protected” and “protection was lost”, respectively. For the same compound, the “biotransformation to the corresponding acid” value in data set [5] (in vivo) was “low biotransformation”. In addition, the “anticonvulsant activity: concentrations lower than VPA” value in the data set with epilepsy model was 2–16 times. Further, the teratogenic effects result in the data set with SWV/Finn mice (setting [11]) is listed as “did not show any significant teratogenic effects”.
